Assay results: DBAASP
Converted amounts (≈) assume the structure as drawn. “And” between values parts separate entries of the source, which are not always exact repeats. Identical values can stand only once. One block for each compound: values may come before it.

Experiments:
Assay in all cases: ≥ marks a high value that may be exact or a test limit, other limits are often not marked, values filed in µg/mL are converted to µM
[1] = tested on: Staphylococcus aureus AB6538
[2] = tested on: Pseudomonas aeruginosa ATCC 27853
[3] = tested on: Pseudomonas aeruginosa ATCC 9027
[4] = tested on: Escherichia coli AB94012
[5] = tested on: Escherichia coli ATCC 25922
[6] = tested on: Staphylococcus aureus 936
[7] = tested on: Staphylococcus aureus MR
[8] = tested on: Staphylococcus aureus ATCC 33591
[9] = tested on: Staphylococcus aureus 113
[10] = tested on: Staphylococcus aureus ATCC 25923
[11] = tested on: Staphylococcus aureus 794
[12] = tested on: Staphylococcus aureus 725
[13] = tested on: Escherichia coli D31
[14] = tested on: Salmonella enterica subsp. enterica serovar Typhimurium ATCC 700408
[15] = tested on: Klebsiella pneumoniae 123132
[16] = tested on: Escherichia coli 45849
[17] = tested on: Klebsiella pneumoniae K6 ATCC 700603
[18] = tested on: Salmonella enterica subsp. enterica serovar Typhi S5
[19] = tested on: Escherichia coli BL21AI
[20] = tested on: Escherichia coli ESBL 4
[21] = tested on: Escherichia coli ESBL
[22] = tested on: Escherichia coli ATCC 43827
[23] = tested on: Escherichia coli ATCC 11775
[24] = tested on: Escherichia coli ATCC 35218
[25] = tested on: Salmonella enterica serovar Typhimurium
[26] = tested on: Escherichia coli ATCC 11229
[27] = tested on: Klebsiella pneumoniae ATCC 13866
[28] = tested on: Staphylococcus epidermidis ATCC 12228
[29] = tested on: Staphylococcus aureus ATCC 29213
[30] = tested on: Aspergillus oryzae NBRC 100959
[31] = tested on: Candida viswanathii NBRC 10321
[32] = tested on: Pseudomonas putida NBRC 100650
[33] = tested on: Micrococcus luteus NBRC 3333
[34] = tested on: Escherichia coli NBRC 3972
[35] = tested on: Staphylococcus epidermidis NBRC 12993
[36] = tested on: Lacticaseibacillus rhamnosus 1.0911
[37] = tested on: Lacticaseibacillus rhamnosus 1.0925
[38] = tested on: Escherichia coli UB1005
[39] = tested on: Lacticaseibacillus rhamnosus 1.0385
[40] = tested on: Lacticaseibacillus rhamnosus 7469
[41] = tested on: Lactiplantibacillus plantarum 8014
[42] = tested on: Lacticaseibacillus rhamnosus 1.0386
[43] = tested on: Staphylococcus aureus ATCC 43300
[44] = tested on: Candida albicans ATCC 10231
[45] = tested on: Bacillus subtilis ATCC 6633
[46] = tested on: Candida albicans ATCC 2002
[47] = tested on: Candida albicans 08030401
[48] = tested on: Candida albicans 08032815

Structure (SMILES): CC[C@H](C)[C@H](NC(=O)[C@H](Cc1ccc(O)cc1)NC(=O)[C@@H](NC(=O)[C@@H]1CCCN1C(=O)[C@H](CCCN=C(N)N)NC(=O)[C@H](CC(N)=O)NC(=O)[C@H](CC(N)=O)NC(=O)CN)C(C)C)C(=O)N1CCC[C@H]1C(=O)N[C@@H](CCC(N)=O)C(=O)N1CCC[C@H]1C(=O)N[C@@H](CCCN=C(N)N)C(=O)N1CCC[C@H]1C(=O)N1CCC[C@H]1C(=O)N[C@@H](Cc1cnc[nH]1)C(=O)N1CCC[C@H]1C(=O)N[C@@H](CCCN=C(N)N)C(=O)N[C@@H](CC(C)C)C(N)=O [GNNRPVYIPQPRPPHPRL]
MIC [13]: 0.474 µM (≈ 1 µg/mL)
MIC [14]: 0.0593 µM (≈ 0.125 µg/mL)
MIC [15]: 7.59 µM (≈ 16 µg/mL)
MIC [16]: 0.237 µM (≈ 0.5 µg/mL)
MIC [17]: 7.59 µM (≈ 16 µg/mL)
MIC [18]: 0.0593 µM (≈ 0.125 µg/mL)
MIC [19]: 0.237 µM (≈ 0.5 µg/mL)

Structure (SMILES): CC[C@H](C)[C@H](NC(=O)[C@H](CCCN=C(N)N)NC(=O)[C@@H](N)CCSC)C(=O)NCC(=O)N[C@@H](CC(C)C)C(=O)N[C@@H](CCCN=C(N)N)C(=O)N[C@@H](Cc1ccccc1)C(=O)N[C@H](C(=O)N[C@@H](CC(C)C)C(=O)N[C@@H](CCSC)C(=O)O)C(C)C [MRIGLRFVLM]
MIC [25]: ≥ 104 µM
MIC [26]: 12.9 µM (≈ 16 µg/mL)
MIC [2]: 12.9 µM (≈ 16 µg/mL)
MIC [8]: ≥ 104 µM
MIC [27]: 25.9 µM (≈ 32 µg/mL)
MIC [28]: 12.9 µM (≈ 16 µg/mL)
MIC [29]: 104 µM (≈ 128 µg/mL)
MIC [24]: ≥ 104 µM

Structure (SMILES): CC[C@H](C)[C@H](NC(=O)[C@H](CCCCN)NC(=O)[C@@H](N)CCCN=C(N)N)C(=O)N[C@@H](CCCCN)C(=O)N[C@@H](CCCN=C(N)N)C(=O)N[C@@H](Cc1ccc(O)cc1)C(=O)N[C@@H](CC(C)C)C(=O)N[C@@H](CCCN=C(N)N)C(=O)N[C@@H](CCCN=C(N)N)C(=O)N[C@@H](CCSC)C(=O)N[C@@H](CCCCN)C(=O)O [RKIKRYLRRMK]
MIC [30]: ≥ 129 µM
MIC [31]: ≥ 258 µM
MIC [32]: ≥ 258 µM
MIC [33]: ≥ 129 µM
MIC [34]: ≥ 64.6 µM
MIC [35]: ≥ 64.6 µM

Structure (SMILES): NC(=O)C[C@H](NC(=O)[C@H](Cc1c[nH]c2ccccc12)NC(=O)[C@H](Cc1c[nH]c2ccccc12)NC(=O)[C@H](Cc1c[nH]c2ccccc12)NC(=O)[C@H](CC(N)=O)NC(=O)[C@H](Cc1c[nH]c2ccccc12)NC(=O)[C@H](CCCN=C(N)N)NC(=O)[C@@H](N)CCCN=C(N)N)C(=O)N[C@@H](Cc1c[nH]c2ccccc12)C(=O)N[C@@H](CCCN=C(N)N)C(=O)N[C@@H](CCCN=C(N)N)C(N)=O [RRWNWWWNWRR]
MIC [2]: > 64 µM
MIC [36]: ≥ 64 µM
MIC [37]: ≥ 64 µM
MIC [38]: ≥ 64 µM
MIC [39]: ≥ 64 µM
MIC [28]: > 64 µM
MIC [40]: ≥ 64 µM
MIC [29]: > 64 µM
MIC [41]: ≥ 64 µM
MIC [42]: ≥ 64 µM
MIC [43]: > 64 µM
MIC [5]: > 64 µM

Structure (SMILES): NCCCC[C@H](NC(=O)[C@H](CCCCN)NC(=O)[C@H](Cc1c[nH]c2ccccc12)NC(=O)[C@H](Cc1c[nH]c2ccccc12)NC(=O)[C@H](CCCCN)NC(=O)[C@H](Cc1ccccc1)NC(=O)[C@H](CCCN=C(N)N)NC(=O)[C@H](Cc1c[nH]c2ccccc12)NC(=O)[C@@H](N)CCCN=C(N)N)C(=O)O [RWRFKWWKK]
MIC [44]: 13 µM (≈ 18.5 µg/mL)
MIC [45]: 26.4 µM (≈ 37.5 µg/mL)
MIC [10]: 26.4 µM (≈ 37.5 µg/mL)
MIC [46]: 13 µM (≈ 18.5 µg/mL)
MIC [47]: 13 µM (≈ 18.5 µg/mL)
MIC [48]: 13 µM (≈ 18.5 µg/mL)
MIC [5]: 26.4 µM (≈ 37.5 µg/mL)

Further lines, results first:

MIC [1]: 3.17 µM (≈ 6.25 µg/mL)
MIC [2]: 12.7 µM (≈ 25 µg/mL)
MIC [3]: 12.7 µM and 25.4 µM
MIC [4]: 6.34 µM (≈ 12.5 µg/mL)
MIC [5]: 12.7 µM (≈ 25 µg/mL)
Structure (SMILES): CC[C@H](C)[C@H](NC(=O)[C@H](CCCCN)NC(=O)[C@@H]1CCCN1C(=O)[C@H](CC(C)C)NC(=O)[C@@H](NC(=O)[C@H](CCCCN)NC(=O)CNC(=O)[C@H](CC(C)C)NC(=O)[C@@H](NC(=O)[C@H](CCCCN)NC(=O)CNC(=O)[C@H](CC(C)C)NC(=O)[C@H](CC(C)C)NC(=O)CNC(=O)[C@H](CC(C)C)NC(=O)[C@@H](N)Cc1ccccc1)C(C)C)C(C)C)C(=O)N[C@@H](Cc1ccccc1)C(=O)N[C@@H](CCCCN)C(N)=O [FLGLLGKVLGKVLPKIFK]

MIC [6]: 4.24 µM (≈ 8 µg/mL)
MIC [7]: 4.24 µM (≈ 8 µg/mL)
MIC [8]: 4.24 µM (≈ 8 µg/mL)
MIC [9]: 4.24 µM (≈ 8 µg/mL)
MIC [10]: 2.12 µM and 4.24 µM
MIC [11]: 4.24 µM (≈ 8 µg/mL)
MIC [12]: 4.24 µM (≈ 8 µg/mL)
Structure (SMILES): CC(C)C[C@H](NC(=O)[C@@H](NC(=O)[C@H](CCCCN)NC(=O)[C@H](CCCCN)NC(=O)[C@H](Cc1c[nH]c2ccccc12)NC(=O)[C@H](CC(C)C)NC(=O)[C@H](CCCN=C(N)N)NC(=O)[C@H](CC(C)C)NC(=O)[C@H](C)NC(=O)[C@H](CCCCN)NC(=O)CNC(=O)[C@H](CC(C)C)NC(=O)[C@H](CC(C)C)NC(=O)[C@H](CO)NC(=O)CNC(=O)[C@H](Cc1ccccc1)NC(=O)CN)C(C)C)C(N)=O [GFGSLLGKALRLWKKVL]

MIC [20]: ≥ 100 µM
MIC [2]: > 100 µM
MIC [21]: ≥ 50 µM
MIC [22]: 6 µM (≈ 11.9 µg/mL)
MIC [23]: ≥ 100 µM
MIC [24]: 12.5 µM (≈ 24.9 µg/mL)
MIC [5]: 25 µM (≈ 49.7 µg/mL)
Structure (SMILES): CC[C@H](C)[C@H](NC(=O)[C@H](Cc1ccc(O)cc1)NC(=O)[C@H](CCC(N)=O)NC(=O)[C@H](CC(C)C)NC(=O)[C@H](C)NC(=O)[C@H](CCCCN)NC(=O)[C@H](CCCCN)NC(=O)[C@H](CCSC)NC(=O)[C@H](CCCCN)NC(=O)[C@H](CCCCN)NC(=O)[C@@H](N)CCCCN)C(=O)N[C@@H](CCCCN)C(=O)N[C@@H](CC(C)C)C(=O)N[C@@H](CC(C)C)C(=O)N[C@@H](CCCCN)C(=O)N[C@@H](CCC(=O)O)C(N)=O [KKKMKKALQYIKLLKE]
